Laboratory results taken from patent US10683286B2, “Furazan-3-carboxylic acid derivatives and use thereof in treatment of cancer” (FREIE UNIVERSITAET BERLIN, priority 2016, dated 2020).
Where two headings read alike, the source gives them in different places. Where a SMILES comes first, the peptide text is derived from it. [ ]: non-standard residue; d: D form. The star is where a group is joined. 5FAM = O=C1OC2(c3ccc(O)cc3Oc3cc(O)ccc32)c2ccc(C(=O)*)cc21; pY = N[C@@H](Cc1ccc(OP(=O)(O)O)cc1)C(=O)O

Target: T1, STAT5b-SH2 domain (Homo sapiens, UniProt P51692)
T1 sequence (P51692 136-703): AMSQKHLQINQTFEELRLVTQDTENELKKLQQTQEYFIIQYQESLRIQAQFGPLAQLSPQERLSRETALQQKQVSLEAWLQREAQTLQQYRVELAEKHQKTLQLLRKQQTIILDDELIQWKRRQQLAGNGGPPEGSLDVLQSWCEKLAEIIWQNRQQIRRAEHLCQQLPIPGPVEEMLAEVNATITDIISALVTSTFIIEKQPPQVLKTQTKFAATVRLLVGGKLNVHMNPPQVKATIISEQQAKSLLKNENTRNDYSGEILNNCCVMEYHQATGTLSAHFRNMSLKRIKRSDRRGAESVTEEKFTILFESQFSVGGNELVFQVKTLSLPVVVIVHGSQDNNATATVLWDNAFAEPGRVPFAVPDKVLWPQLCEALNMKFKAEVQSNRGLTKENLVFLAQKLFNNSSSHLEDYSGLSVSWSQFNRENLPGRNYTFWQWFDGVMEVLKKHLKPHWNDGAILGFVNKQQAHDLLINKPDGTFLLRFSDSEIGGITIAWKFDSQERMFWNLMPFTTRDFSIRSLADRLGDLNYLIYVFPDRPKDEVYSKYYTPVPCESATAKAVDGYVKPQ
Test: Competitive fluorescence polarization (FP) assay, STAT5b-SH2 domain
Conditions: for activity / binding to the STAT5-SH2 domain: in words
Protocol: The ChemBioNet fragment collection composed in accordance with the substructure composition of the World Drug Index (WDI) was screened both for enhancing and inhibiting fragments of the phosphopeptide-STAT5 interaction.
The clone for Stat5b expression was kindly provided by Thorsten Berg (MPI, Martinsried). Expression of that truncated version of Stat5b (aa 136-703) cloned into a modified pQE70, with N-terminal MBP-tag and C-terminal His-tag was conducted on autoinduction medium (overnight express/Novagen). Cells were grown to an optical density (O.D.) of 0.3 at 37° C., then the temperature was reduced to 20° C. for further 48 h of expression. […] The protein was purified by Ni-chelating chromatography followed by gel filtration (Superdex 200/10 mM HEPES pH 7.8, 100 mM NaCl, 1 mM EDTA, 1 mM DTT, 10% glycerol). A yield of 15 mg MBP-Stat5b-His per liter of culture was obtained and aliquots (200 μl of 3.2 mg/ml) were quick-frozen and stored at −80° C., ready for use.
17000 compounds from the (FMP) ChemBioNet library were tested in a competitive-based fluorescence polarization (FP) assay to investigate the ability of compounds to bind to STAT5b-SH2 domain by displacing respective fluorophore-labeled peptides (5-carboxyfluorescein-GY (PO3H2) LSLPPW-NH2). The peptide purity was >95% and the screening were performed at room temperature. The final concentration of buffer components used was 10 mM HEPES (pH 7.5), 1 mM EDTA, 0.1% Igepal CA-630, 50 mM NaCl, and 5% DMSO. The final concentration of protein used was at 65 nM which correspond to the dissociation constants (Kd) for the individual protein-peptide interactions in assay buffer. The protein was first added to the black 384 well plate (Corning 3676) followed by test compounds and fluorophore-labeled peptide. The plates were centrifuged, and measured using Safire^2 well plate reader (Tecan, Crailsheim, Germany) after 15 minutes incubation at room temperature. […] For the analysis of the data GraphPad Prism 5 was used. Ligand efficiencies (LE) were calculated using equation derived as followed. LE=−ΔG°/HA with (ΔG°) is the standard free energy of binding in KJ and HA is the number of non-hydrogen atoms.

LE (Table 1, ligand efficiency)	activity / binding to the STAT5-SH2 domain	Compound	Ki	LE	Ki (Table 1, inhibitors of STAT5b, KI converted from IC50)	Kd
		COC(=O)c1nonc1NCn1nnnc1-c1cccc(NS(C)(=O)=O)c1 [Compound 23]	18.3 ± 2.4 µM	1.00		
		COC(=O)c1nonc1NCn1nnnc1-c1cccc(C(F)(F)F)c1 [Compound 20]	9.5 ± 1.8 µM	1.10		
1.64 kJ/mol* atom#	completely inactive	O=C(O)c1nonc1NCn1cncn1 [Compound 10]	47.5 ± 8.5 µM			
		O=Cc1ccc(OP(=O)(O)O)cc1 [Compound 1, 4-Formylphenyl-dihydrogen-phosphate, reference compound]	> 500 µM			
1.12 kJ/mol* atom#	completely inactive	O=C(O)c1nonc1NCn1nnc2ccccc21 [Compound 12]	188 ± 25 µM			
		COC(=O)c1nonc1NCn1nnnc1-c1ccc(C(F)(F)F)cc1 [Compound 18]	94.9 ± 2.1 µM	0.88		
2.14 kJ/mol* atom#	inactive	Nc1nonc1C(=O)O [Compound 4, 4-Amino-furazan-3-carboxylic Acid]				
		O=C(O)c1nonc1NCn1nnnc1Cc1ccc(F)cc1 [Compound 31]	7.2 ± 1.9 µM	1.28		
1.30 kJ/mol* atom#		CCCCOC(=O)c1nonc1NCn1cnnn1 [Compound 7]	48.2 ± 5 µM			145 µM
		O=C(O)c1nonc1NCn1nnnc1-c1cccc(OCc2ccccc2)c1 [Compound 19]	1.2 ± 0.5 µM	1.16		
		COC(=O)c1nonc1NCn1nnnc1-c1ccccc1 [Compound 17]	37.1 ± 6 µM	1.15		37 µM
		O=C(O)c1nonc1NCn1nnnc1-c1ccc(-c2ccccc2)cc1 [Compound 29]	0.8 ± 0.2 µM	1.30		0.8 µM
	completely inactive	O=C(O)c1nonc1NCc1ccccn1 [Compound 11]	> 500 µM			
		COC(=O)c1nonc1NCn1nnnc1-c1cccc([N+](=O)[O-])c1 [Compound 22]	> 500 µM			
1.49 kJ/mol* atom#		O=C(O)c1nonc1NCn1cccn1 [Compound 13]	122 ± 7.3 µM			122 µM
		O=C(O)c1nonc1NCn1nnnc1-c1cccc(OC(F)(F)F)c1 [Compound 26]	3 ± 0.7 µM	1.21		
	abolished the activity	COC(=O)c1nonc1NC(=O)Cn1cnnn1 [Compound 14]	> 500 µM			
1.41 kJ/mol* atom#	completely inactive	O=C(O)c1nonc1NCn1ccnn1 [Compound 9]	191 ± 24 µM			
		O=C(O)c1nonc1NCn1nnnc1-c1ccc(F)cc1 [Compound 28]		1.42		
	inactive	COC(=O)c1nsnc1NCn1cnnn1 [Compound 8]	> 500 µM			
		COC(=O)c1nonc1NCn1nnnc1-c1cccc(OC(F)(F)F)c1 [Compound 25]	16.7 ± 4.3 µM	1.01		
		COC(=O)c1nonc1NCn1nnnc1-c1cccc(O)c1 [Compound 24]	22.3 ± 3 µM	1.21		
		O=C(O)c1nonc1NCn1nnnc1-c1cccc(F)c1 [Compound 27]	0.62 ± 0.09 µM	1.61		0.62 µM
		O=C(O)c1nonc1NCn1nnnc1-c1cccc(C(F)(F)F)c1 [Compound 21]	0.86 ± 0.05 µM	1.38		0.86 µM

Compound	LE (Table 1, ligand efficiency)	activity / binding to the STAT5-SH2 domain	Ki	LE	Ki (Table 1, inhibitors of STAT5b, KI converted from IC50)	Kd
c1nnn[nH]1 [Compound 5, 1H-tetrazole, reference compound]		inactive			> 500 µM	
CC(C)C[C@H](NC(=O)[C@H](Cc1ccc(OP(=O)(O)O)cc1)NC(=O)CNC(=O)c1ccc2c(c1)C(=O)OC21c2ccc(O)cc2Oc2cc(O)ccc21)C(=O)N[C@@H](CO)C(=O)N[C@@H](CC(C)C)C(=O)N1CCC[C@H]1C(=O)N1CCC[C@H]1C(=O)N[C@@H](Cc1c[nH]c2ccccc12)C(N)=O [Compound 2, Fluo-GY*LSLPPW-NH2, reference compound] (5FAM-G[pY]LSLPPW-NH2)	0.42 kJ/mol* atom#		0.055 ± 0.006 µM			0.055 µM
